Among the data in US6107316A, “Method for treating protozoal infections” (priority 1998, dated 2000) are inhibition and cytotoxicity values, retold here.

Data set [1] concerns Toxoplasma gondii. Put plainly: growth inhibition of T. gondii in HFF host cells ([3H]-uracil incorporation). Type of data set: cell-based. As to conditions: Toxoplasma gondii, HFF host cells; for inhibition at 0.5 µg/mL: 0.5 μg/ml; for inhibition at 0.5 µg/mL / inhibition at 5 µg/mL / inhibition at 25 µg/mL: read-out: % Inhibition; for inhibition at 5 µg/mL: 5.0 μg/ml; for inhibition at 0.05 µg/mL: 0.05 μg/ml; for inhibition at 25 µg/mL: 25.0 μg/ml. How it is done: (§1) Compounds were tested for it vitro growth inhibitory activity against Toxoplasma gondii replication in L929 (L929-ATCC CCL 1, mouse connective tissue) or HFF (human foreskin fibroblast) host cells using the [^3 H]-uracil incorporation technique as follows. Host cells were grown in 96-well flat-bottom microtiter plates at 37° C in a 5% carbon dioxide environment in modified Eagle's medium containing penicillin, streptomycin and 10% fetal equine serum. Wells containing a homogeneous confluent monolayer of host cells were infected with T. gondii tachyzoites at a ratio of 3 parasites per cell (approximately 6×10^4 tachyzoites per well containing 100 μl of medium). […] Two hours post infection, the cultures were washed to remove free parasites and the various dilutions of test compound were added. Cells were subsequently collected at 24, 48 and 72 hours. Four hours prior to each harvesting 50 Al of [^3 H]-uracil (1 μCi) was added. Cells were collected using a cell harvester and incorporated radioactivity was measured using a scintillation counter. […]

Data set [2] is described as follows: cytotoxicity towards HFF host cells (Cell Titer 96). As to conditions: human, % Inhibition of host cell growth (values in parenthesis). On the procedure: (§2) Cytotoxicity of the test compounds towards host cells was determined using the Cell Titer 96™ it (Promega Corporation, Madison, Wis.) as follows. Cells were seeded at a concentration of 5×10^3 cells per well containing 100 μl of medium in 96-well flat-bottom microtiter plates and incubated at 37° C. in a 5% carbon dioxide environment for 4 hours. Dilutions of the test compounds prepared as described above were then added, and incubation continued for 24, 48 or 72 hours. Four hours before each of these time points the growth medium containing test compound was replaced with 100 μl of fresh medium followed by addition of 16 μl of the kit dye solution. After incubation at 37° C. for another 4 hours, 100 μl of the kit solubilization/stop solution was added to each well, the contents of the wells were mixed and the plates kept 1 hour at room temperature. The plates were then read spectrophotometrically in a plate reader at a wavelength of 570 nm. […] Atovaquone was included in the test as a standard.

For data set [3], the system named is Toxoplasma gondii. Put plainly: growth inhibition of T. gondii in L929 host cells ([3H]-uracil incorporation). It is filed as cell-based. The settings on record: Toxoplasma gondii, L929 host cells; for inhibition at 0.05 µg/mL: 0.05 μg/ml; for inhibition at 0.5 µg/mL: 0.5 μg/ml; for inhibition at 0.5 µg/mL / inhibition at 5 µg/mL / inhibition at 25 µg/mL: read-out: % Inhibition; for inhibition at 5 µg/mL: 5.0 μg/ml; for inhibition at 25 µg/mL: 25.0 μg/ml. On the procedure:
as §1

The nature of data set [4]: cytotoxicity towards L929 host cells (Cell Titer 96). The settings on record: mouse, % Inhibition of host cell growth (values in parenthesis). How it is done:
as §2

The next data set has as its system Cryptosporidium parvum. Put plainly: growth inhibitory activity against C. parvum in host MDBKF5D2 cells (immunofluorescence). It is filed as cell-based. The settings on record: Cryptosporidium parvum, 48 h. On the procedure:
(§3) Compounds were tested for in vitro growth inhibitory activity against C. parvum grown in host MDBKF5D2 cells and for toxicity towards the host cells as follows. […] To test for toxicity towards the host cells, the media containing test compound (200 μl) were introduced into two wells of a 96 well microtiter plate containing confluent MDBKF5D2 cell monolayers and two wells without monolayers, and incubated at 37° C. in an 8% carbon dioxide environment. After 48 hours, the tetrazolium salt MTS (Owen's solution) and phenazine methosulfate were added to each well at concentrations of 333 μg/ml and 25 μM, respectively. The plate was returned to the incubator in the dark to develop for 2 hours, then 100 μl of each supernatant was transferred to a new microtiter plate and read spectrophotometrically in a plate reader at a wavelength of 490 nm. Percent toxicity was calculated by subtracting the mean optical density (OD) of the drug supernatants from the OD of medium control supernatants (no drug), dividing by the OD of the medium control, and multiplying by 100. To test for growth inhibitory activity against C. parvum, 3×10^4 oocysts per well were incubated in mentioned concentrations of each drug at 37° C. (8% CO2) on confluent MDBKF5D2 cell monolayers in 96 well microtiter plates. After 48 hours, the level of infection in each well was determined by means of an immunofluorescence assay. Percent inhibition of growth was calculated by subtracting the mean parasite count in the wells containing test compound from the mean parasite count in the medium control wells (no test compound), dividing by the mean parasite count in the medium control wells, and multiplying by 100. Paromomycin was included in the test as a standard.

Data set [5] is described as follows: toxicity towards MDBKF5D2 host cells (MTS). As to conditions: bovine, mdbkf5d2 cells, Cytotoxicity (percent toxicity). How it is done:
as §3

Turning to `O=C1C(O)=C([C@H]2CC[C@H](c3ccc(Cl)cc3)CC2)C(=O)c2ccccc21` [Atovaquone, reference compound], the inhibition – broadly, the share of the control response that was lost under treatment – at 0.5 µg/mL in the data set with Toxoplasma gondii [1] (24 h, 24 hours) worked out at 98.3%; in the data set on Toxoplasma gondii [1] (48 h, 48 hours), 77.8%; in the data set with Toxoplasma gondii [1] (72 h, 72 hours), 99.8%; with Toxoplasma gondii [3] (L929, 24 h, 24 hours), 85.2%; with Toxoplasma gondii [3] (L929, 48 h, 48 hours), 99%; with Toxoplasma gondii [3] (L929, 72 h, 72 hours), 98.4%. Moreover, the inhibition at 5 µg/mL came to 95.5% in the data set with Toxoplasma gondii [1] (24 h, 24 hours); 99.8% in the data set on Toxoplasma gondii [1] (48 h, 48 hours); 100% in the data set with Toxoplasma gondii [1] (72 h, 72 hours); 80.3% with Toxoplasma gondii [3] (L929, 24 h, 24 hours); 100% with Toxoplasma gondii [3] (L929, 48 h, 48 hours); 97.8% with Toxoplasma gondii [3] (L929, 72 h, 72 hours). The inhibition at 0.05 µg/mL in the data set with Toxoplasma gondii [1] (48 h) is 50.5%; in the data set with Toxoplasma gondii [1] (72 h), 89.4%; in the data set on Toxoplasma gondii [3] (L929, 24 h, 24 hours) it was 80.9%; in the data set on Toxoplasma gondii [3] (L929, 48 h, 48 hours) it was 0%; in the data set with Toxoplasma gondii [3] (L929, 72 h, 72 hours) it was 0%. The inhibition at 24 h stood at 0% in data set [2] (0.05 μg/ml); 0% in data set [2] (0.5 μg/ml); 6.2% in data set [2] (5.0 μg/ml); 0% in data set [4] (L929, 0.05 μg/ml); 14.3% in data set [4] (L929, 0.5 μg/ml); 20% in data set [4] (L929, 5.0 μg/ml). The inhibition at 48 h stood at 0% in data set [2] (0.05 μg/ml); 9.6% in data set [2] (0.5 μg/ml); 31.1% in data set [2] (5.0 μg/ml); 0% in data set [4] (L929, 0.05 μg/ml); 15% in data set [4] (L929, 0.5 μg/ml); 54.1% in data set [4] (L929, 5.0 μg/ml). Moreover, the inhibition at 72 h in data set [2] (0.05 μg/ml) came to 0%; in data set [2] (0.5 μg/ml), 1.4%; in data set [2] (5.0 μg/ml), 28.1%; in data set [4] (L929, 0.05 μg/ml), 0.2%; in data set [4] (L929, 0.5 μg/ml), 44.4%; in data set [4] (L929, 5.0 μg/ml), 78.1%.

Regarding `CCC(C)(NC(=O)c1cc(F)c(F)c(F)c1)C(=O)CCl` (centres unmarked) [Compound 11], the inhibition at 0.1 µM in the data set on Cryptosporidium parvum (0.1 μM) was 5.6%. Also, at 1 µM the inhibition in the data set on Cryptosporidium parvum (1.0 μM) was 18.1%. The inhibition at 10 µM in the data set with Cryptosporidium parvum (10 μM) came to 23.9%. Besides, testing at 100 µM in the data set on Cryptosporidium parvum (100 μM) gave an inhibition of 86.2%. The inhibition at 5 µg/mL is 73.4% in the data set with Toxoplasma gondii [1] (24 h, 24 hours); 98.4% in the data set with Toxoplasma gondii [1] (48 h, 48 hours); 97.7% in the data set on Toxoplasma gondii [1] (72 h, 72 hours); 21.5% in the data set on Toxoplasma gondii [3] (L929, 24 h, 24 hours); 80.1% in the data set with Toxoplasma gondii [3] (L929, 48 h, 48 hours); 95.4% in the data set on Toxoplasma gondii [3] (L929, 72 h, 72 hours). The inhibition at 25 µg/mL in the data set on Toxoplasma gondii [1] (24 h, 24 hours) came out at 91.9%; in the data set on Toxoplasma gondii [1] (48 h, 48 hours), 98.8%; in the data set with Toxoplasma gondii [1] (72 h, 72 hours), 97.7%; in the data set with Toxoplasma gondii [3] (L929, 24 h, 24 hours), 25.6%; with Toxoplasma gondii [3] (L929, 48 h, 48 hours) it was 66.1%; in the data set on Toxoplasma gondii [3] (L929, 72 h, 72 hours), 73.6%. Further, the inhibition at 24 h in data set [2] (5.0 μg/ml) is 2.1%; in data set [2] (25.0 μg/ml) it was 17.5%; in data set [4] (L929, 5.0 μg/ml) it was 0%; in data set [4] (L929, 25.0 μg/ml) it was 22.6%. In addition, the inhibition at 48 h in data set [2] (5.0 μg/ml) turned out to be 6.1%; in data set [2] (25.0 μg/ml), 20%; in data set [4] (L929, 5.0 μg/ml), 5.5%; in data set [4] (L929, 25.0 μg/ml), 60.1%. The inhibition at 72 h in data set [2] (5.0 μg/ml) was 0%; in data set [2] (25.0 μg/ml), 50.1%; in data set [4] (L929, 5.0 μg/ml), 36.9%; in data set [4] (L929, 25.0 μg/ml) it was 89.6%. In data set [5] (0.1 μM), this molecule registered a cytotoxicity at 48 h, 0.1 µM of 0%. The molecule also had a cytotoxicity at 48 h, 1 µM in data set [5] (1.0 μM) of 0%. The molecule further had a cytotoxicity at 48 h, 10 µM in data set [5] (10 μM) of 0%. The cytotoxicity at 48 h, 100 µM in data set [5] (100 μM) was 2.7%.

As to `NC[C@@H]1O[C@H](O[C@H]2[C@@H](O)[C@H](O[C@@H]3[C@@H](O)[C@H](N)C[C@H](N)[C@H]3O[C@H]3O[C@H](CO)[C@@H](O)[C@H](O)[C@H]3N)O[C@@H]2CO)[C@H](N)[C@@H](O)[C@@H]1O` [Paromomycin, reference compound], at 2000 µg/mL the inhibition in the data set on Cryptosporidium parvum was 77.8%.
